Earlier results as cited in patent publication US20230025663A1, “NANOFORMULATION WITH DIVERSE FUNCTIONAL MOLECULES FROM TURMERIC AND PROCESS FOR PREPARATION OF THE SAME” (ZEROHARM SCIENCES PRIVATE LIMITED, priority 2021, published 2023).

Settings: in vivo

For COc1cc(/C=C/C(=O)CC(=O)/C=C/c2ccc(O)c(OC)c2)ccc1O [curcumin], the bioavailability is listed as ~1%.
